Experimental data from US10611799B2, “Anti-endotoxin polypeptide” (priority 2017, dated 2020).
“Also recorded” adds a separate entry of the source. No end group written: not given here.

Columns and labels:
[1] = system: LPS (Control Standard Endotoxin); test: Binding and neutralization of LPS, Limulus Amebocyte Lysate (LAL) assay; type: biochemical; settings: peptide 8-128 μg/mL, CSE 5EU
Protocol: The abilities of the anti-endotoxin polypeptides to bind and neutralize LPS were assessed using Limulus Amebocyte Lysate (LAL) assay (Cape Cod Inc, East Falmouth, Mass., USA). 25 μL of different peptide concentration (128, 64, 32, 16, and 8 μg/mL) were mixed with 25 μL CSE (Control Standard Endotoxin) (5EU) in a 96-well plate, and 50 μL of Pyrochrome® reagent was added to wells immediately. The absorbance at 405 nm was measured by microplate reader at 37° C. for 25 minutes.

[2] = Peptide-induced calcein leakage of POPC/POPG LUVs
Protocol: (§1) In this embodiment, the large unilamellar vesicles (LUVs) of POPC/LPS (POPC:LPS=12.5:1 mol/mol), POPC/cholesterol (POPC:cholesterol=2:1 mol/mol), and POPC:POPG (POPC:POPG=3:1 mol/mol) were prepared by the extrusion method with Avanti small-volume extrusion apparatus (Avanti Polar Lipid). Calcein-filed LUVs were prepared by calcein-containing buffer (70 mM calcein and 10 mM Tris at pH 7.4). Peptide-induced calcein leakages were measured by Perkin-Elmer luminescence spectrofluorimeter at excitation and emission wavelengths of 496 and 515 nm, respectively. Leakage is expressed as a percentage relative to the total amount of dye released by addition of 100 mg/mL of Triton X-100, which represented 100% leakage (the maximum fluorescence intensity).
(§2) The degree of leakage induced by various concentrations of polypeptides was estimated by: % leakage=(F−F0)/(Fr−F0)×100%, wherein the F0 is the initial fluorescence intensity observed without peptide, and Fr is the fluorescence intensity of 100% leakage.

Acinetobacter sp. = test: Antibacterial activity, broth microdilution, Acinetobacter sp.; type: cell-based
Protocol: (§3) The antibacterial activities were determined by the standard broth microdilution method of National Committee for Clinical Laboratory Standards with the MH and LYM broth. MH or LYM broth with 50, 100, 200, or 300 mM NaCl (containing 5.4 mM KCl, 5.6 mM Na2HPO4, 0.5 mM MgSO4, and 1.0 mM sodium citrate, 0.4 mg of ZnCl2, 2.0 mg of FeCl3.6H2O, 0.1 mg of CuSO4.5H2O, 0.1 mg of MnSO4.H2O, 0.1 mg of Na2B4O7.10H2O, 700 mg of amino acid mixtures without tryptophan (Clontech), and 20 mg of L-Tryptophan, 2% vitamin mixture (100×, Sigma) and glucose at final concentration of 2%) were used to serially dilute the anti-endotoxin polypeptide of the present invention to obtain anti-endotoxin polypeptide solutions with a concentration ranging from 3,200 to 100 μg/mL.
(§4) 1 μL of peptide solutions were mixed with 99 μL inoculums (5×10^5 CFU/mL) in polypropylene 96-well plates, respectively. The turbidity at OD600 nm was determined by ELISA plate reader (Thermo Max, Molecular Devices, Sunnyvale, Calif.). The absorbance of culture medium and inoculum without peptides were used as the negative and positive control, respectively. […] All peptides were tested in triplicate. […] KR12AGPKR6 peptide was very effective against bacteria in LYM broth condition (MIC=about 2 μg/mL).

[3] = system: gram-positive and negative bacteria; test: Antibacterial activity and salt resistance, broth microdilution (MIC); type: cell-based
Protocol: as §3, §4

[4] = LPS aggregation, dynamic light scattering; settings: peptide 8 and 16 μg/mL, LPS 25 μM
Protocol: The LPS molecule were dissolved in chloroform:methanol (2:1) then the stock solution was sonicated at 40° C. for 20 minutes and then kept at 4° C. overnight. The stock solution were diluted to 25 μM by using 20 mM sodium phosphate buffer with 150 mM sodium chloride and then at 4° C. overnight for use. Peptide concentration was diluted to 8 or 16 μg/mL. After the LPS solution was interacted with the peptide solution, the particle size and distribution analysis was measured by dynamic light scattering in Malvern Zetasizer ZS (Malvern, UK).

[5] = Peptide-induced calcein leakage of POPC/LPS LUVs
Protocol: as §1, §2

[6] = POPC/LPS LUVs aggregation, dynamic light scattering; settings: peptide 8 and 16 μg/mL
[7] = system: NO production in J744A.1 cells; test: Inhibition of LPS-induced NO production (Griess reagent); type: cell-based; settings: LPS 150 ng/mL, peptide 2-32 μg/mL, 24 hours
Protocol: (§5) J744A.1 cells (3×10^5 cells) were seeded in a 24-well plate and incubated for 24 hours. Cells were washed by PBS and LPS (E. coli 026:B6 (SIGMA, 150 ng/mL)) and the anti-endotoxin polypeptide of the present invention (2-32 μg/mL) were added to the wells. After 24 hours treatment, culture supernatant was harvested and centrifuged at 1,000 rpm for 10 minutes. 50 μL of culture supernatant was mixed with 50 μL Griess reagent (SIGMA) in a 96-well plate and incubated at room temperature for 10 minutes. The absorbance at 540 nm was measured and the NO concentration was calculated. Additionally, the concentration of TNF-α in the culture supernatant was evaluated using ELISA kits (eBiosciences).

[8] = system: E. coli O26:B6 LPS-induced endotoxemia; test: Mouse model of endotoxemia; type: in vivo, C57BL/6 mice; settings: 18 mg/kg LPS plus 10 mg/kg peptide i.p.
Protocol: 5-week old male C57BL/6 mice were purchased from National Laboratory Animal Center (Taiwan). Mice were divided into three groups (five in each group) with intraperitoneal (i.p.) injection of (a) 18 mg/kg of body weight E. coli O26:B6 LPS, (b) 18 mg/kg body weight LPS plus 10 mg/kg peptide, and (c) no treatment. Blood was collected via tail vein 1.5 hours after injection. Whole blood was centrifuged at 3,000 rpm at 4° C. for 10 minutes. After 24 hours, all mice were sacrificed. The lungs were removed and fixed in 4% formaldehyde buffer, and deparaffinized in UltraClear buffer (J. K. Baker) and graded ethanol. Histology of lung sections was performed by hematoxylin and eosin (H&E) staining. Tissue images were captured using light microscope (Eclipse E400, Nikon) with digital microscopy camera (AxioCam ICc 5, ZEISS).

[9] = system: TNF-α release in J744A.1 cells; test: Inhibition of LPS-induced TNF-α release (ELISA); type: cell-based; settings: LPS 150 ng/mL, peptide 2-32 μg/mL, 24 hours
Protocol: as §5

Cytotoxicity, MTT assay = type: cell-based; settings: mouse, J744A.1 cells, 64 μg/mL, read-out: survival rate
Protocol: In this embodiment, the cytotoxicity was evaluated by MTT assay. J744A.1 cells were seeded in a 96-well plate with 10^4 cells/100 μL/well and incubated for 24 hours. After removing the medium, 100 μL of fresh medium containing anti-endotoxin polypeptide (2 to 64 μg/mL) was added to the wells. After 24 hours incubation, the fresh medium with 0.5 mg/mL MTT was added and incubated for 3 hours. After the medium/MTT was removed, DMSO was added at 100 μL for dissolving the formazan crystal. Cell survival rate was calculated by measuring the absorbance at 450 nm using Multi-labeled Microplate Reader (VICTOR 3).

[10] = relative to Triton X-100 = 100%

| Substance | LPS-neutralizing activity (LAL assay) [1] | calcein leaking activity [2] | antibacterial effectiveness compared to other bacteria strain (Acinetobacter sp.) | antibacterial activity ([3]; 200 mM NaCl) | antibacterial activity ([3]; low NaCl condition) | LPS aggregation and particle size [4] | calcein leaking activity [5] | antibacterial activity ([3]; MH or LYM broth) | antibacterial activity ([3]; 300 mM salt condition) | POPC/LPS LUVs aggregation and particle size [6] | calcein leakage [2, 10] [%] | minimum inhibitory concentration (MIC) ([3]; high salt conditions) [µg/mL] | inhibition of NO production [7] | level of TNF-α in blood ([8]; blood 1.5 hours after injection) | proliferation of alveolar epithelial cells and pulmonary hemorrhage (lung histology) ([8]; lungs after 24 hours, H&E) | inhibition of TNF-α release [9] | viability at 24 h, 64 µg/mL (Cytotoxicity, MTT assay) [%] | calcein leakage [5, 10] |
| --- | --- | --- | --- | --- | --- | --- | --- | --- | --- | --- | --- | --- | --- | --- | --- | --- | --- | --- |
| KRIVQRIKDFLRAGPRRLVRI (The anti-endotoxin polypeptide synthesized from the laboratory) [KR12AGPVR6] | only small effects | show leaking activities; also recorded: does-dependent calcein leaking activities | more effective | lost its activities | high activities | did not aggregate LPS and change particle size | show leaking activities; also recorded: does-dependent calcein leaking activities |  |  |  |  |  |  |  |  |  |  |  |
| KRIVQRAGPIKDFLR (The anti-endotoxin polypeptide synthesized from the laboratory) [KR15AGP] | only small effects |  |  |  |  | did not aggregate LPS and change particle size |  | did not show any activity |  |  |  |  |  |  |  |  |  |  |
| KRIVQRIKDFLRAGPIKDFLR [KR12AGPKR6] | only small effects | show leaking activities; also recorded: does-dependent calcein leaking activities | more effective |  |  | did not aggregate LPS and change particle size | show leaking activities; also recorded: does-dependent calcein leaking activities |  | inactive totally |  |  |  |  |  |  |  |  |  |
| Ac-KRIVQRIKDFLRAGPRRWWRW-NH2 (N-terminus and C-terminus assumed) [KR12AGPWR6] | better LPS-neutralizing activity; also recorded: neutralize downstream reaction dose-dependently | show leaking activities; also recorded: does-dependent calcein leaking activities | more effective |  |  | promoted | show leaking activities; also recorded: does-dependent calcein leaking activities |  |  | promoted | ~70 | 2 to 4 | inhibit concentration-dependently | significantly lower; also recorded: suppress | significantly decreased; also recorded: improve | inhibited | ~70 | about 80% |
